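Step 1: Grow cells in 96-well plates. Step 2: Expose to compound for 48 hours at 5 concentrations. Step 3: Interpolate endpoints linearly; if unreached, use highest concentration. Abbreviation: GI50, concentration required for 50% inhibition of growth.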 Active and inactive are the calls of the source. Rule as the data show it: active = GI50 up to about 1.1 µM and inactive = higher.
Experiments:
Assay in all cases: NCI-60 cell line screen, 48 h
NCI-H522 = system: NCI-H522
DU-145 = system: DU-145
SF-268 = system: SF-268
SR = system: SR
M14 = system: M14
A498 = system: A498
OVCAR-5 = system: OVCAR-5
HOP-62 = system: HOP-62
Malme-3M = system: Malme-3M
U-251 = system: U-251
MOLT-4 = system: MOLT-4
HT-29 = system: HT-29
SW-620 = system: SW-620
MDA-MB-435 = system: MDA-MB-435
MDA-MB-231 = system: MDA-MB-231
SK-MEL-28 = system: SK-MEL-28
IGROV-1 = system: IGROV-1
786-0 = system: 786-0
UACC-62 = system: UACC-62
ACHN = system: ACHN
NCI-H460 = system: NCI-H460
SN12C = system: SN12C
SK-OV-3 = system: SK-OV-3
HCC 2998 = system: HCC 2998
SF-295 = system: SF-295
K562 = system: K562
HL-60 = system: HL-60
UO-31 = system: UO-31
LOX IMVI = system: LOX IMVI
BT-549 = system: BT-549
RXF 393 = system: RXF 393
SK-MEL-2 = system: SK-MEL-2
PC-3 = system: PC-3
EKVX = system: EKVX
NCI-H23 = system: NCI-H23
A549 = system: A549
COLO 205 = system: COLO 205
KM12 = system: KM12
UACC-257 = system: UACC-257
MDA-N = system: MDA-N
Hs-578T = system: Hs-578T
HCT-116 = system: HCT-116
TK-10 = system: TK-10
SNB-75 = system: SNB-75
NCI-H226 = system: NCI-H226
CCRF-CEM = system: CCRF-CEM
CAKI-1 = system: CAKI-1
SNB-19 = system: SNB-19
HOP-92 = system: HOP-92
HCT-15 = system: HCT-15
T47D = system: T47D
SF-539 = system: SF-539
RPMI-8226 = system: RPMI-8226
OVCAR-3 = system: OVCAR-3
OVCAR-8 = system: OVCAR-8
NCI/ADR-RES = system: NCI/ADR-RES
MCF7 = system: MCF7
SK-MEL-5 = system: SK-MEL-5
OVCAR-4 = system: OVCAR-4

Measured: GI50

Cc1cc(-c2nc3cc(F)ccc3s2)ccc1N
inactive: NCI-H522 16.9 µM | DU-145 56 µM | SF-268 20.3 µM | M14 39.2 µM | A498 2 µM | HOP-62 15.2 µM | Malme-3M 40.8 µM | U-251 24.2 µM | MOLT-4 34.2 µM | HT-29 29 µM | SW-620 > 100 µM | MDA-MB-435 > 55.6 µM | MDA-MB-231 8.11 µM | SK-MEL-28 > 100 µM | 786-0 22.2 µM | UACC-62 39.7 µM | ACHN 22.4 µM | SN12C 31 µM | SK-OV-3 88.5 µM | SF-295 14.8 µM | K562 > 49.2 µM | HL-60 > 28.1 µM | UO-31 4.06 µM | LOX IMVI > 56.9 µM | BT-549 > 48 µM | RXF 393 17.2 µM | SK-MEL-2 34.6 µM | PC-3 17 µM | EKVX 11.2 µM | NCI-H23 2.79 µM | A549 6.17 µM | COLO 205 8.69 µM | KM12 42.8 µM | UACC-257 29.9 µM | MDA-N > 46.1 µM | Hs-578T 26.5 µM | HCT-116 21.1 µM | SNB-75 20.4 µM | CCRF-CEM 1.95 µM | CAKI-1 23.6 µM | SNB-19 35.8 µM | HOP-92 18.7 µM | SF-539 20.4 µM | RPMI-8226 > 31.3 µM | OVCAR-3 28.7 µM | OVCAR-8 36.3 µM | NCI/ADR-RES 75.9 µM | SK-MEL-5 42.4 µM
active: SR < 0.0106 µM | OVCAR-5 0.794 µM | IGROV-1 < 0.01 µM | NCI-H460 < 0.017 µM | HCC 2998 < 0.01 µM | TK-10 < 0.01 µM | NCI-H226 < 0.051 µM | T47D < 0.01 µM | MCF7 < 0.01 µM
7.96 µM: HCT-15

CC1=NN(c2cccc(Cl)c2)C2(C1=C/C=C/c1ccccc1)C(Cl)C(=O)N2c1nc2ccccc2s1 (stereo unspecified)
inactive: NCI-H522 14.8 µM | DU-145 9.33 µM | OVCAR-4 35.7 µM | SF-268 7.74 µM | SR 1.51 µM | M14 23 µM | A498 30.2 µM | OVCAR-5 34.1 µM | HOP-62 27.9 µM | Malme-3M 39 µM | U-251 6.92 µM | MOLT-4 1.53 µM | HT-29 25.7 µM | SW-620 18.9 µM | MDA-MB-435 24.6 µM | MDA-MB-231 22.3 µM | SK-MEL-28 26.2 µM | IGROV-1 27.5 µM | 786-0 11.7 µM | UACC-62 31.5 µM | ACHN 4.76 µM | NCI-H460 5.42 µM | SN12C 34.6 µM | SK-OV-3 29 µM | HCC 2998 25.1 µM | SF-295 11 µM | K562 6.14 µM | HL-60 3.08 µM | UO-31 21.4 µM | LOX IMVI 13.1 µM | BT-549 32.1 µM | RXF 393 23.1 µM | SK-MEL-2 18.7 µM | PC-3 19.3 µM | EKVX 40.2 µM | NCI-H23 16.9 µM | A549 43 µM | COLO 205 62.7 µM | KM12 23.8 µM | UACC-257 36.7 µM | MDA-N 26.8 µM | Hs-578T 21 µM | HCT-116 19.3 µM | TK-10 53 µM | NCI-H226 27.4 µM | CCRF-CEM 8.05 µM | CAKI-1 9.4 µM | SNB-19 60.8 µM | HOP-92 19.5 µM | T47D 15.8 µM | SF-539 19.2 µM | RPMI-8226 4.43 µM | OVCAR-3 24.7 µM | OVCAR-8 17.9 µM | NCI/ADR-RES 40.5 µM | MCF7 9.14 µM | SK-MEL-5 22.9 µM
29.6 µM: HCT-15

Source: ChEMBL document CHEMBL1201862, “PubChem BioAssay data set” (2004)
